Experimental data reported in ChEMBL document CHEMBL3098125, “Synthesis, anti-HIV activity, integrase enzyme inhibition and molecular modeling of catechol, hydroquinone and quinol labdane analogs” (Bioorg Med Chem Lett, 2014).
Active and inactive are the calls of the source. The calls are words filed in the database; no cut-off is given here.

Tests used:
[1] = test system: Human immunodeficiency virus 1; assay: Antiviral activity against HIV1 NL4.3 infected in human TZM-bl cells expressing CXCR4-tropic at 50 uM incubated for 1 hr prior to infection measured after 48 hrs by luciferase reporter gene assay; type: functional, organism-based
[2] = Cytotoxicity against human TZM-bl cells assessed as cell viability after 48 hrs by MTT assay; type: cell-based; conditions: for CC50 at 48 h: TZM-bl cells
[3] = test system: Human immunodeficiency virus 1; assay: Antiviral activity against HIV1 NL4.3 infected in human TZM-bl cells expressing CXCR4-tropic incubated for 1 hr prior to infection measured after 48 hrs by luciferase reporter gene assay; type: functional, organism-based; conditions: Human immunodeficiency virus 1, NL4.3, TZM-bl
[4] = Therapeutic index, ratio of CC50 for human TZM-bl cells to IC50 for HIV1 NL4.3 infected in human TZM-bl cells; type: cell-based; conditions: HIV1 NL4.3 infected TZM-bl cells, read-out: Ratio CC50/IC50
[5] = target: Human immunodeficiency virus type 1 integrase (Human immunodeficiency virus 1) (UniProt Q7ZJM1); assay: (§1) Inhibition of HIV1 integrase
Chain of Human immunodeficiency virus type 1 integrase (Human immunodeficiency virus 1) (Q7ZJM1 as listed by the source): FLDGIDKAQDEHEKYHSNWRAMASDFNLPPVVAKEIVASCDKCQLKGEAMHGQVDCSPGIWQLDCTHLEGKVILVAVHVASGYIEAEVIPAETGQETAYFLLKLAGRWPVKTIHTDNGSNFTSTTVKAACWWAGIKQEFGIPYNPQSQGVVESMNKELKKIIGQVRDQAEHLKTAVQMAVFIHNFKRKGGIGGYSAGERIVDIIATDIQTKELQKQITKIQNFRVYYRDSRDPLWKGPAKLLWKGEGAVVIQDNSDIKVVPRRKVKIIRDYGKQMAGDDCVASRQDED

[6] = target: Human immunodeficiency virus type 1 integrase (Human immunodeficiency virus 1, UniProt Q7ZJM1); assay: as §1
Chain of Human immunodeficiency virus type 1 integrase (Q7ZJM1 whole entry): as the sequence (Q7ZJM1 as listed by the source) above

Row | SMILES | Activity [1] | CC50 ([2]; tzm, 48 h) | IC50 ([3]; read-out: IC50) | IC50 ([3]; read-out: pIC50 (converted)) | selectivity ratio [4] | CC50 at 48 h [2] | inhibition [5] | IC50 [6]
1 | CC(C)=CCCC1=CCc2c(O)ccc(O)c2C1 | inactive | Not Active | – | – | – | – | – | –
2 | C=C(C=O)[C@@H]1C[C@@]2(C)C(=CC1=O)[C@H](OC(=O)/C(C)=C/C(C)CCCC)CC[C@@H]2C(=O)O (stereo partly drawn) | – | – | 10 µM | 10 µM | – | – | – | –
3 | COC(=O)C12C=CC(=O)C(O)=C1CC(CC/C=C(\C)CO)=CC2 (stereo not drawn) | – | – | 285 µM | 282 µM | 1 | 383 µM | – | –
4 | CC(C)=CCC1C(C)=CCc2c1ccc(O)c2O (stereo not drawn) | – | – | 4.6 µM | 4.57 µM | 46 | 211 µM | Dose-dependent effect | 11.1 µM
5 | Cc1nnc(C(=O)NC(C)(C)c2nc(C(=O)NCc3ccc(F)cc3)c(O)c(=O)n2C)o1 | – | – | 0.5 µM | 0.501 µM | – | 856 µM | – | –
6 | CC(C)=CCCC1=CCc2ccc(O)c(O)c2C1 | – | – | 12.3 µM | 12.3 µM | 11 | 138 µM | Dose-dependent effect | 13.4 µM
7 | COC(=O)C12C=CC(=O)C(O)=C1CC(CC/C=C(\C)C=O)=CC2 (stereo not drawn) | – | – | 172 µM | 170 µM | 4 | 625 µM | – | –
8 | COC(=O)C12C=CC(=O)C(OC(C)=O)=C1CC=C(C)C2CC=C(C)C (stereo not drawn) | – | – | 36.7 µM | 36.3 µM | 18 | 677 µM | – | –
9 | COC(=O)C12C=CC(=O)C(O)=C1CC=C(C)C2C/C=C(\C)C=O (stereo not drawn) | – | – | 60.7 µM | 60.3 µM | 10 | 627 µM | – | –
10 | COC(=O)C12C=CC(=O)C(O)=C1CC=C(C)C2C/C=C(\C)CO (stereo not drawn) | – | – | 72.7 µM | 72.4 µM | 13 | 928 µM | – | –
11 | COC(=O)C12C=CC(=O)C(O)=C1CC=C(C)C2CC=C(C)C (stereo not drawn) | – | – | 5 µM | 5.01 µM | 11 | 56.4 µM | – | –
12 | CC(C)=CCC1C(C)=CCc2c(O)ccc(O)c21 (stereo not drawn) | – | – | 12.4 µM | 12.3 µM | 11 | 140 µM | Dose-dependent effect | 11.5 µM
13 | COC(=O)C12C=CC(=O)C(O)=C1CC(CCC=C(C)C)=CC2 (stereo not drawn) | – | – | 171 µM | 170 µM | 4 | 693 µM | – | –
